Reference: patent publication US5925633A, “3-Substituted-4-oxa-1-azabicyclo [3,2,0]heptan-7-one as cysteine protease inhibitors” (Synphar Laboraties, Inc., priority 1996, dated 1999)
pIC50: −log10 of the molar value. Like-named read-outs stand apart in the source and are kept apart here.

Key:
cathepsin B = cathepsin B (Rattus norvegicus, UniProt P00787); assay: In vitro assay procedure for cathepsin B (inhibition); type: biochemical
Procedure: The compounds of formula I were tested for inhibition of cathepsin B using the known method (A. J. Barret et al., Biochem. J. 1982, 201, 189-198). […] After 10 min of incubation at room temperature, a 20 μl of 5 mM substrate (N-CBZ-Phe-Arg-AMC, dissolved in DMSO) was added to initiate reaction. Reading is followed up for 10 min at the fluoroscan reader (excitation at 380 nm, emission at 460 nm).

papain = target: T1, papain (Carica papaya, UniProt P00784); assay: In vitro assay procedure for papain (inhibition); type: biochemical
T1 sequence (P00784 134-345): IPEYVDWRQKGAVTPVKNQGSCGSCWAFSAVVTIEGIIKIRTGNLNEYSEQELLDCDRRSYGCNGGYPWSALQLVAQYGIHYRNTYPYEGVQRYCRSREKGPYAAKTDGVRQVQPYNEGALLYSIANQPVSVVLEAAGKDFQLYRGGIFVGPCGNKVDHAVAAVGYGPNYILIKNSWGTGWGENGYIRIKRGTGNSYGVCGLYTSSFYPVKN
Procedure: To a 170 μl of enzyme-buffer mixture (enzyme: papain, diluted to give 30 mOD/min, buffer: 0.2 M potassium phosphate, 1.0 mM EDTA, 5 mM L-Cysteine, pH 6.5) a 10 μL of inhibitor (dissolved in DMSO) was added. After 10 min of incubation at room temperature, a 20 μl of 10 mM substrate (N-CBZ-Pro-Phe-Arg-pNA, dissolved in DMSO) was added to initiate reaction. Reading is followed up for 3 min at the Thermomax plate reader (absorbance at 405 nm)
A plot of percentage of inhibition vs inhibitor concentration is obtained, and IC50 is determined using a linear regression calculations (concentration of inhibitor which will give 50% inhibition).

[1] = rat cathepsin B, pH 5.1, 10 min incubation at room temperature, substrate N-CBZ-Phe-Arg-AMC, read-out: IC50 Cathepsin B
[2] = pH 6.5, 10 min incubation at room temperature, substrate N-CBZ-Pro-Phe-Arg-pNA, read-out: IC50 Papain

cathepsin B, sequence (P00787 80-339): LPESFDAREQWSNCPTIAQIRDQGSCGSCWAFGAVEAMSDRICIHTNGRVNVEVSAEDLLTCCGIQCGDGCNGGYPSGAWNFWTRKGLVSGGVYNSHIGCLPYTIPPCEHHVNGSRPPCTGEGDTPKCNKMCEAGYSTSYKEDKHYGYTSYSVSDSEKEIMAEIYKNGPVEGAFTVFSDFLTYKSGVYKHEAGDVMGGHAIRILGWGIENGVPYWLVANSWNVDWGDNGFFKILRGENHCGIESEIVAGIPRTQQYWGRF

Structure (SMILES) | pIC50 (cathepsin B; [1]) | pIC50 (papain) | pIC50 (papain; [2]) | pIC50 (cathepsin B)
O=C(O)CC1CN2C(=O)CC2O1 (centres unmarked) | 5.40 | 5.77 |  | 
O=C(N[C@@H](Cc1ccccc1)C(=O)OC[C@H]1CN2C(=O)C[C@@H]2O1)OCc1ccccc1 (mixture of isomers) [Example 4, (3RS,5SR)-3-{N-(benzyloxycarbonyl)-L-phenylalanyl}-oxymethyl-4-oxa-1-azabicyclo [3,2,0] heptan-7-one] | 6.23 |  | 6.62 | 
O=C(OC[C@H]1CN2C(=O)C[C@@H]2O1)[C@@H]1CCCN1C(=O)OCc1ccccc1 (mixture of isomers) [Example 5, (3RS,5SR)-3-{N-(benzyloxycarbonyl)-L-prolyl}-oxymethyl-4-oxa-1-azabicyclo[3,2,0] heptan-7-one] | 6.36 |  | 6.31 | 
CC[C@H](C)[C@H](NC(=O)OCc1ccccc1)C(=O)OC[C@H]1CN2C(=O)C[C@@H]2O1 (mixture of isomers) [Example 6, (3RS,5SR) -3-{N-(benzyloxycarbonyl)-L-isoleucyl}-oxymethyl-4-oxa-1-azabicyclo [3,2,0] heptan-7-one] | 6.29 |  | 6.42 | 
O=C(CNC(=O)[C@H](Cc1ccccc1)NC(=O)OCc1ccccc1)OC[C@H]1CN2C(=O)C[C@@H]2O1 (mixture of isomers) [Example 7, (3RS,5SR)-3-{N-(benzyloxycarbonyl)-L-phenylalanyl-glycyl}-oxymethyl-4-oxa-1-azabicyclo [3,2,0] heptan-7-one] | 5.51 |  | 5.45 | 
CC[C@H](C)[C@H](NC(=O)OCc1ccccc1)C(=O)N1CCC[C@H]1C(=O)OC[C@H]1CN2C(=O)C[C@@H]2O1 (mixture of isomers) [Example 8, (3RS, 5SR)-3-{N-(benzyloxycarbonyl)-L-isoleucyl-L-prolyl}-oxymethyl-4-oxa-1-azabicyclo [3,2,0] heptan-7-one] | 5.35 |  | 6.13 | 
CC(C)C[C@H](NC(=O)OCc1ccccc1)C(=O)N1CCC[C@H]1C(=O)OC[C@H]1CN2C(=O)C[C@@H]2O1 (mixture of isomers) [Example 9, (3RS, 5SR)-3-{N-(benzyloxycarbonyl)-L-leucyl-L-prolyl}-oxymethyl-4-oxa-1-azabicyclo [3,2,0] heptan-7-one] | 5.54 |  | 5.69 | 
O=C(OC[C@H]1CN2C(=O)C[C@@H]2O1)C1CCCCC1 (racemic) [Example 11, (3RS,5SR)-3-(cyclohexanecarbonyloxymethyl)-4-oxa-1-azabicyclo [3,2,0] heptan-7-one] | 6.10 |  | 6.00 | 
O=C(OC[C@H]1CN2C(=O)C[C@@H]2O1)C1CCCC1 (racemic) [Example 12, (3RS,5SR)-3-(cyclopentanecarbonyloxymethyl)-4-oxa-1-azabicyclo [3,2,0] heptan-7-one] | 6.18 |  | 5.95 | 
Cc1c(C(=O)NC[C@@H]2CN3C(=O)C[C@@H]3O2)c(=O)[nH]c2ccccc12 (racemic) [Example 16, (3RS, 5SR)-3-(1,2-dihydro-4-methyl-2-oxo-quinolin-3-yl)-carbonylaminomethyl-4-oxa-1-azabicyclo [3,2,0] heptan-7-one] | 5.38 |  | 6.15 | 
Cc1c(C(=O)OC[C@H]2CN3C(=O)C[C@@H]3O2)c(=O)[nH]c2ccccc12 (relative stereo) [Example 10, (3RS, 5SR)-3-(1,2-dihydro-4-methyl-2-oxo-guinolin-3-yl)-carbonyloxymethyl-4-oxa-1-azabicyclo [3,2,0] heptan-7-one] | 5.52 |  | 6.85 | 
O=C(/C=C/c1ccccc1)OC[C@H]1CN2C(=O)C[C@@H]2O1 (relative stereo) [Example 13, (3RS, 5SR)-3-(trans-3-phenylpropenoyl)oxymethyl-4-oxa-1-azabicyclo [3,2,0] heptan-7-one] | 5.39 |  | 6.35 | 
Cn1c2nc(=O)[nH]c(=O)c-2nc2cc(C(=O)OC[C@H]3CN4C(=O)C[C@@H]4O3)ccc21 (relative stereo) [Example 14, (3RS, 5SR)-3-(10-methylisoalloxazin-7-yl)-carbonyloxy methyl-4-oxa-1-azabicyclo [3,2,0] heptan-7-one] | 4.77 |  | 6.12 | 
CCOC(=O)c1ccc2c(c1)nc1c(=O)n(C[C@H]3CN4C(=O)C[C@@H]4O3)c(=O)nc-1n2C (relative stereo) [Example 15, (3RS, 5SR)-3-(7-ethoxycarbonyl-10-methylisoalloxazin-3-yl) -methyl-4-oxa-1-azabicyclo [3,2,0] heptan-7-one] | 5.54 |  | 5.91 | 
CC(C)(C)[Si](C)(C)OC[C@H]1CN2C(=O)C[C@@H]2O1 [Example 1A, (3R, 5S)-3-(tert-butyldimethylsilyl)oxymethyl-4-oxa-1-azabicyclo [3,2,0] heptan-7-one] |  |  | 6.80 | 6.11
CC(C)(C)[Si](C)(C)OC[C@H]1CN2C(=O)C[C@H]2O1 [Example 1B, (3R, 5R)-3-(tert-butyldimethylsilyl)oxymethyl-4-oxa-1-azabicyclo [3,2,0] heptan-7-one] |  |  | 5.51 | 5.11

Structure (SMILES) | pIC50 (cathepsin B; [1]) | pIC50 (papain) | pIC50 (papain; [2]) | pIC50 (cathepsin B)
O=C1C[C@@H]2O[C@@H](CO)CN12 [Example 2, (3R, 5S)-3-hydroxymethyl-4-oxa-1-azabicyclo[3,2,0] heptan-7-one] | 5.30 |  | 5.69 | 
CC(=O)NC[C@H]1CN2C(=O)C[C@@H]2O1 [Example 3, (3S,5S)-3-(N-acetylamino)methyl-4-oxa-1-azabicyclo [3,2,0] heptan-7-one] | 6.25 |  | 6.23 | 
O=C1C[C@@H]2O[C@@H](Cn3ccnn3)CN12 [Example 17, (3R,5S)-3-(1,2,3-triazol-1-yl)-methyl-4-oxa-1-azabicyclo [3,2,0] heptan-7-one] | 6.54 | 6.54 |  | 
O=C(CC1CN2C(=O)CC2O1)OC(c1ccccc1)c1ccccc1 (centres unmarked) [Example 18, diphenylmethyl 2-(7-oxo-4-oxa-1-azabicyclo [3,2,0]heptan-3-yl)-acetate] | 5.53 |  | 5.68 | 
O=C(OCc1ccccc1)[C@@H]1CCCN1C(=O)CC1CN2C(=O)CC2O1 (stereo partly drawn) [Example 20, N-{(7-oxo-4-oxa-1-azabicyclo [3,2,0]heptan-3-yl)-methylcarbonyl} L-proline benzyl ester] | 4.86 |  | 6.25 | 
NC(CC(=O)O)C(=O)NCC1CN2C(=O)CC2O1 (centres unmarked) [Example 21] | 4.90 |  | < 4.70 | 
NC(CC(=O)O)C(=O)OCC1CN2C(=O)CC2O1 (centres unmarked) [Example 22] | < 4.70 |  | < 4.70 | 
O=C(N[C@@H](Cc1ccccc1)C(=O)NCC1CN2C(=O)CC2O1)OCc1ccccc1 (some centres unmarked) [Example 23] | 5.62 |  | 6.46 | 
NC(CCC(=O)OCC1CN2C(=O)CC2O1)C(=O)O (centres unmarked) [Example 24] | 4.92 |  | 5.53 | 
CC(N)C(=O)OCC1CN2C(=O)CC2O1 (centres unmarked) [Example 25] | < 4.70 |  | 5.48 | 
CC(N)C(=O)NCC1CN2C(=O)CC2O1 (centres unmarked) [Example 26] | < 4.70 |  | 5.54 | 
O=C(CCl)NCC1CN2C(=O)CC2O1 (centres unmarked) [Example 27] | 6.40 |  | 6.05 | 
O=C1CC2OC(CNC(=O)C(F)(F)F)CN12 (centres unmarked) [Example 28] | 6.48 |  | 6.08 | 
O=C(O)C[S+]([O-])CC1CN2C(=O)CC2O1 (centres unmarked) [Example 29] | 6.42 |  | 5.41 | 
CC(C)C(=O)NCC1CN2C(=O)CC2O1 (centres unmarked) [Example 30] | 6.34 |  | 6.02 | 
